What all share (assay type): cell-based
Data set [1] relates to human mammary luminal progenitor (LP) cells. The data set is described as follows: Live-cell imaging of LP-derived organoids during elongation phase (cell movement, bead displacement, duct elongation). The procedure: Live cell imaging was performed using a Leica SP8 lightning confocal microscope with an on-stage incubation system (Ibidi) regulating CO2, O2, humidity and temperature. Organoids were imaged during elongation phase between day 7 and 9 with a time separation of 10 min between each acquired image. For visualization, nuclei were labelled with 10 μM sirDNA (Spirochrome AG) 3 hours prior to the measurements. Accordingly, organoids were excited at 633 nm and the fluorescent signal was collected around 674 nm using a HCX PL APO 10×/0.40 CS dry objective. Bead displacements/deformation fields were visualized using ImageJ 1.48v. First, the fluorescence signal of the fluorescent nuclei at the first time step was summed up along the z-axis to visualize the shape of the organoid. Second the fluorescence channel of the beads was summed along the z-axis and subsequently summed up over all time steps. At last, both calculated pictures were merged into one image. Bead tracking was calculated using Matlab R2020b. First, the fluorescence channel of the beads was masked by an intensity threshold to reduce the background. Second, bead positions are defined by taking the center of an interpolated intensity grid. Third, individual bead tracks were calculated by matching bead coordinates in three consecutive images. Thereby, beads touching the boundaries or beads to close to each other were excluded to guarantee a correct tracking.
Analysis for structure prevalence, type, size and complexity was performed with GraphPad Prism 8. Nuclei velocity within the organoid was calculated via optical flow using the in Matlab implemented Farneback algorithm. By defining the branch axis, the velocities were separated in a parallel and orthogonal component. The directionality of nuclei migration was defined by calculating the ratio of parallel and orthogonal component. Consequently, at directionality equal to one parallel and orthogonal component are at the same order of magnitude. At higher or lower values, either parallel or orthogonal velocity component dominates. In order to visualize the migration patterns of individual cells, cells were manually tracked. Therefore, each nucleus was tracked three times and the resulting average path was calculated.
Collagen degradation via MMPs was inhibited by using 10 μM Marimastat (Merck, 444289), which was added to the medium of elongating organoids prior to imaging. E-cadherin blocking was performed by addition of an E-cadherin blocking-antibody HECD1 in a dilution of 1:25 after 5 d of organoid culture.

The test system is the same in data set [2]. The data set is described as follows: Branched structure formation of single LP cells in collagen type I gels (carmine staining, quantification of structure type, size, complexity). The procedure:
Healthy mammary gland tissue was provided by the Nymphenburg Clinic for Plastic and Aesthetic Surgery and processed in accordance with the regulations of the ethics committee of the Ludwig-Maximilian University, Munich, Germany (proposal 19-989) as described previously^35,63. In brief, reduction mammoplasty tissue was minced with scalpels into 2-3 mm^3 pieces. Next, tissue was digested with 300 U/mL collagenase I and 100 U/mL hyaluronidase and 1 μg/mL insulin for approximately 16 hrs. Finally, fragments were either cryopreserved immediately or a single cell suspension was made using trypsin-EDTA and dispase. If cells were cryopreserved as fragments, they were turned into a single cell suspension upon thawing using trypsin-EDTA and dispase. Prior to experiments, single cell suspensions were filtered through a 40 μm cell strainer. Age and parity of donors used in this study are catalogued in Table 1 given directly below.
3D collagen type I gels were prepared as described previously^35,63 with modifications. Single cell suspensions were mixed with BLOM foundation, rat tail collagen type I (Corning) and neutralizing solution. The final collagen concentration was 1.3 mg/ml. If the pH of the solution was <7.4, the pH was adjusted by addition of NaOH (1 M) up to a volume of 1 μl per 100 μl polymerization solution. After polymerization for 1 hr, 2× concentrated full medium was added onto the gels in a 1:1 volume ratio to the gel. Gels were encircled with a pipette tip for detachment. For cells that had not been in culture previously, the first medium exchange (from now on with 1× concentrated medium) was done after 5 d and then every 2-3 d. In case of cells that had been in 2D culture before, the first medium exchange was done between 3 d and 5 d. For all experiments except ELDA, per 1 ml of gel, between 250 and 2000 LP cells were seeded. In case of B+ and LM cells, between 2000 and 7500 cells were seeded per 1 ml of gel.
Images of carmine stained structures were evaluated with ImageJ. The size of an organoid was determined with the ImageJ area tool. Here, all tips of the structure were virtually connected with the ImageJ area tool and size was defined as the area covered by the organoid. For assessment of complexity, the longest branch was identified within each structure. The hierarchy of all other branches relative to this longest branch was classified (see FIG. 6B).
Carmine staining solution was prepared with a concentration of 0.5 g/l carmine and 1.15 g/l aluminium potassium sulfate in distilled water. For staining of 3D structures, gels were fixed with 4% paraformaldehyde for 15 min and incubated with carmine staining solution overnight. Images were acquired on a Leica DM IL LED microscope using a HiPlan 10×/0.22 PH1 objective. Three PBS washing steps were performed in between all steps described above.

The test system is the same in data set [3]. Kind of data set: Immunofluorescence of polarization markers in LP-derived organoids. As to conditions: BLOM-medium without Y-27632. The protocol:
2D cells for immunofluorescence were cultured in 96-wells with optically clear bottom (PerkinElmer, 6005550). Immunofluorescence was performed as described previously^35,63. In brief, 2D cells or 3D cells (in collagen type I gels) were fixed with 4% paraformaldehyde for 15 min. Cells were permeabilized with 0.2% Triton X-100 for 2 min (2D) and 10 min (3D) respectively. Blocking was performed with 10% donkey serum in 0.1% BSA for 1 hr (2D) and overnight at 4° C. (3D) respectively. Primary antibodies in 0.1% BSA were incubated for 1 hr (2D) and overnight at 4° C. (3D) respectively. Next, DAPI (167 ng/ml) was added for 2 min (2D) and 10 min (3D), respectively. Finally, Aqua-Poy/Mount mounting medium (Polysciences, 18606) was added to preserve staining. Three PBS washing steps were performed in between all steps described above. Images of cells grown in 2D were acquired on an Axio Imager. A M2m imaging microscope was used with a 40× objective. Images of cells grown in 3D were acquired on FLUOVIEW FV1000 inverted confocal laser scanning microscope equipped with four laser lines (405, 488, 543, and 633 nm) using UPLSAPO 60×, 40× and 20× objective lenses. Images were processed with Gimp 2.8.22 and ImageJ 1.52i.

Where [4] appears, read: 10 μM Marimastat during branch elongation phase.

Regarding `CNC(=O)[C@@H](NC(=O)[C@H](CC(C)C)[C@H](O)C(=O)NO)C(C)(C)C` [Marimastat], in data set [1] (setting [4]), the “duct elongation / invasion of branch tips (in words)” value is listed as “stopped the branch tips from further invading the matrix” and the “general cytotoxic effect (in words)” value was “excluding a general cytotoxic effect”.
Consider `Cc1ccc2c(c1)C(=O)[C@]1(O)CCN(c3ccc(N)cc3)C1=N2` [PAB, para-amino blebbistatin], for which the “branched structure phenotype when Y-27632 is replaced by PAB (in words)” value in data set [2] (BLOM-medium without Y-27632, PAB added, donors M16, M28, M44) is reported as “able to induce a phenotype similar to the one created by Y-27632”.
As to `C[C@@H](N)[C@H]1CC[C@H](C(=O)Nc2ccncc2)CC1` [Y-27632], the “decrease in branched structure formation upon removal of Y-27632” value in data set [2] (BLOM-medium without Y-27632 (DMSO ctrl) vs with Y-27632 (5 μM), donors M35, M44, M45) is 79%. Also, the “change in size of branched structures upon removal of Y-27632” value in data set [2] (BLOM-medium without Y-27632 (DMSO ctrl) vs with Y-27632, size = area covered by organoid) is listed as −66%. Moreover, the “organoids with tertiary or even more complex branches” value in data set [2] (control organoids in BLOM-medium with Y-27632 (only 6% without Y-27632)) was found to be 65%. Further, the “formation of elongated branched structures (in words)” value in data set [2] (medium deprived of Y-27632) is on record as “prevented the formation of elongated branched structures almost completely”. For the same compound, in data set [3], the “apical-basal polarization of organoids (laminin, F-actin, lumen) (in words)” value is given as “polarization was disturbed in the absence of ROCK inhibition”. Moreover, the “bead displacement / contractility (in words)” value in data set [1] (in the presence of ROCK inhibitor, collagen gels spiked with fluorescent beads) is listed as “not completely abolished, but limited to the front of elongating branches”. For the same compound, the “directionality of cell migration within organoids (in words)” value in data set [1] (under ROCK inhibition (with Y-27632), nuclear labelling) is reported as “primarily directed outwards in parallel to the axis of the extending branch”.

The values are drawn from US20240368563A1, “IN VITRO METHOD OF INVASIVE AND DUCTAL CELL GROWTH” (Helmholtz Zentrum München - Deutsches Forschungszentrum Für …, priority 2021, published 2024).
